{
  "source": "patent US10563267B2",
  "about": "“Polymorphism biomarkers predict clinical outcomes of cancer patients receiving regorafenib” (University of Southern California, priority 2016, dated 2020)",
  "key": {"[1]": {"test_system": "cancer patients", "assay": "Hand foot skin reaction (HFSR) in cancer patients receiving regorafenib, by ethnicity", "assay_type": "in vivo, human", "description": "HFSR of grade 3-4 are among the most common grade 3-4 […] reactions associated with a therapy with regorafenib or an equivalent thereof. In this example, single nucleotide polymorphisms (SNPs) of CCL5 were evaluated for their ability to predict the likelihood for a patient to experience HFSR from a therapy comprising an effective amount of regorafenib or an equivalent thereof.\nGenomic DNA was obtained from more than 200 cancer patients receiving regorafenib and analyzed by using PCR-based direct sequencing. SNPs in CCL5 were tested to discover that the rarity (<1%) of the genotype of (G/G) for the rs2280789 polymorphism and/or the rs3817655 polymorphism (the genotype of (G/G) for the rs2280789 polymorphism and/or the rs3817655 are seen in 10% in Asian (Japanese) and 1% in Caucasian (Italian)) relates to the significant ethnic difference in severe HFSR developed by Caucasian patients compared to Japanese patients (grade 3 HFSR 16% vs 33.8% respectively, p=0.003)."}, "[2]": {"test_system": "cancer patients", "assay": "Clinical outcome (OS, PFS, tumor response) of cancer patients treated with regorafenib, by SNP genotype", "assay_type": "in vivo, human", "description": "Further, single nucleotide polymorphisms (SNPs) of genes involved in various angiogenic pathways were evaluated for their ability to predict clinical outcomes for cancer patient treated with a therapy comprising regorafenib or an equivalent thereof.\nStill further, combinations of single nucleotide polymorphisms (SNPs) of genes involved in various angiogenic pathways were evaluated for their ability to predict clinical outcomes for cancer patient treated with a therapy comprising regorafenib or an equivalent thereof.\nGenomic DNA was obtained from cancer patients in therapies comprising regorafenib or an equivalent thereof and analyzed by using PCR-based direct sequencing. Multiple functional SNPs in 11 genes (NOTCH1, IL8, CCL5, DLL4, PLGF, ANG2, TIE1, PDGFRB, VEGFR2, EGFC and VEGFA) were tested.\nPCR and product sequencing were done using standard procedures. Uni- and multivariate analyses, adjusting for age, gender, rash and racial background, were carried out."}, "[3]": {"settings": "VEGFR2 rs2071559 A/Variant + NOTCH1 rs3125001 C/C + ANG2 rs2916702 A/Variant carriers"}, "[4]": {"settings": "VEGFR2 rs2071559 A/Variant + NOTCH1 rs3125001 C/C + ANG2 rs2916702 G/G carriers"}, "[5]": {"settings": "VEGFR2 rs2071559 A/Variant + NOTCH1 rs3125001 T/Variant carriers"}, "[6]": {"settings": "VEGFR2 rs2071559 A/variant carriers (N=111)"}},
  "data": [
    {"molecule": "CNC(=O)c1cc(Oc2ccc(NC(=O)Nc3ccc(Cl)c(C(F)(F)F)c3)c(F)c2)ccn1", "note": "[regorafenib]", "values": [
      {"measurement": "grade 3 HFSR", "setting": "[1]; Caucasian (Italian) patients receiving regorafenib", "value": 16, "unit": "%"},
      {"measurement": "grade 3 HFSR", "setting": "[1]; Japanese patients receiving regorafenib", "value": 33.8, "unit": "%"},
      {"measurement": "HR for OS", "setting": "[2]; TIE1 A/A + Plgf C/C vs TIE1 G/Variant carriers (HR reference), multivariate", "value": 0.22},
      {"measurement": "HR for OS", "setting": "[2]; TIE1 A/A + Plgf T/Variant vs TIE1 G/Variant carriers (HR reference), multivariate", "value": 0.79},
      {"measurement": "median OS", "setting": "[2]; TIE1 rs7527092 A/A (N=41)", "value": 4.7, "unit": "months"},
      {"measurement": "median OS", "setting": "[2]; TIE1 rs7527092 A/A + Plgf rs2268614 C/C carriers (N=9)", "value": 2.6, "unit": "months"},
      {"measurement": "median OS", "setting": "[2]; TIE1 rs7527092 A/A + Plgf rs2268614 T/Variant carriers (N=32)", "value": 5.8, "unit": "months"},
      {"measurement": "HR for OS", "setting": "[2]; TIE1 rs7527092 A/A vs G/variant carriers, multivariate, p=0.0063", "value": 1.72},
      {"measurement": "HR for OS", "setting": "[2]; TIE1 rs7527092 A/A vs G/variant carriers, univariate, p=0.0303", "value": 1.49},
      {"measurement": "median OS", "setting": "[2]; TIE1 rs7527092 G/Variant carriers (N=109)", "value": 7.8, "unit": "months"},
      {"measurement": "median OS", "setting": "[2]; TIE1 rs7527092 G/variant carriers (N=106)", "value": 7.8, "unit": "months"},
      {"measurement": "patients non-responsive (tumor response)", "setting": "[2]; [3]", "value": 7},
      {"measurement": "patients responsive (tumor response)", "setting": "[2]; [3]", "value": 16},
      {"measurement": "patients non-responsive (tumor response)", "setting": "[2]; [4]", "value": 6},
      {"measurement": "patients responsive (tumor response)", "setting": "[2]; [4]", "value": 2},
      {"measurement": "patients non-responsive (tumor response)", "setting": "[2]; [5]", "value": 49},
      {"measurement": "patients responsive (tumor response)", "setting": "[2]; [5]", "value": 25},
      {"measurement": "median OS", "setting": "[2]; [6]", "value": 7.0, "unit": "months"},
      {"measurement": "median PFS", "setting": "[2]; [6]", "value": 2.3, "unit": "months"},
      {"measurement": "response (positive)", "setting": "[2]; [6]", "value": 41, "unit": "%"},
      {"measurement": "median OS", "setting": "[2]; VEGFR2 rs2071559 G/G (N=39)", "value": 4.7, "unit": "months"},
      {"measurement": "median PFS", "setting": "[2]; VEGFR2 rs2071559 G/G (N=39)", "value": 1.8, "unit": "months"},
      {"measurement": "response (positive)", "setting": "[2]; VEGFR2 rs2071559 G/G (N=39)", "value": 18, "unit": "%"},
      {"measurement": "patients non-responsive (tumor response)", "setting": "[2]; VEGFR2 rs2071559 G/G carriers", "value": 31},
      {"measurement": "patients responsive (tumor response)", "setting": "[2]; VEGFR2 rs2071559 G/G carriers", "value": 7},
      {"measurement": "HR for PFS", "setting": "[2]; VEGFR2 rs2071559 G/G vs A/variant carriers, multivariate, p=0.0197", "value": 1.59},
      {"measurement": "HR for PFS", "setting": "[2]; VEGFR2 rs2071559 G/G vs A/variant carriers, univariate, p=0.0250", "value": 1.49},
      {"measurement": "HR for OS", "setting": "[2]; VEGFR2 rs2071559 G/G vs A/variant carriers, univariate, p=0.0452", "value": 1.45},
      {"measurement": "median PFS", "setting": "[2]; high-risk group: VEGFR2 rs2071559 G/G + NOTCH1 rs6563 A/A (N=15) together with G/G + NOTCH1 G/Variant + ANG2 rs2442599 A/A (N=11)", "value": 1.7, "unit": "months"},
      {"measurement": "median PFS", "setting": "[2]; low-risk group: VEGFR2 rs2071559 A/variant (N=111) together with G/G + NOTCH1 rs6563 G/Variant + ANG2 rs2442599 G/Variant (N=13)", "value": 2.3, "unit": "months"},
      {"measurement": "HR for PFS", "setting": "[2]; tree model high-risk vs low-risk group (VEGFR2/NOTCH1/ANG2), multivariate, log-rank P<0.001", "value": 0.41}
    ]}
  ]
}
